Assay results taken from patent US20260041703A1, “HYPERBRANCHED DEXTRINS FOR TOPICAL USE IN THE PREVENTION OR TREATMENT OF AT LEAST ONE SYMPTOM OF SKIN INFLAMMATION” (ROQUETTE FRERES, priority 2022, published 2026).

Legend:
[1] = system: IL-8; experiment: ELISA assay of inflammation marker IL-8 in supernatant of 2D reconstructed human epidermis; format: cell-based; settings: 0.5% SLS positive control (6 hours)
From the text: After washing, HRP-streptavidin is deposited in the wells. […] The inflammatory response is interpreted as a sample-to-untreated ratio greater than or equal to 2.
A ratio greater than or equal to 2 reflects overexpression of the inflammatory marker while a ratio less than 2 indicates non-expression of the inflammatory marker.

[2] = system: IL-1α; experiment: ELISA assay of inflammation marker IL-1α in supernatant of 2D reconstructed human epidermis; settings: 0.5% SLS positive control (6 hours)
Procedure: This model comprises a monolayer of normal human epidermal keratinocytes (NHEK, one of the main cell types of the skin), which have been cultured on inert polycarbonate inserts.
The epidermises were treated with a 0.5% aqueous solution of Sodium Lauryl Sulfate (SLS) for 6 hours to create inflammation of the reconstructed epidermis, then the surface of the epidermises was rinsed with 500 μL of PBS. 20 μL of different concentrations of hydrogenated and highly branched dextrins (10 and 5% in ultrapure water) and 0.05% Betamethasone cream (Biogaran cream, a corticoid with an anti-inflammatory role) were applied topically to the epidermis for 20 hours at 37° C. No application was made for the SLS control within 20 hours of rinsing with PBS. […]
For this, cell supernatants are collected after the required treatment time and commercially available ELISA kits are used to quantitatively determine the presence of inflammatory markers.
These ELISA kits are designed for quantitative measurement of the aforementioned markers, particularly in culture supernatants using specific human antibodies. […] A developer solution changes the color from blue to yellow, and its intensity is measured at 450 nm using the Molecular Devices Vmax microplate reader. Absorbance values are recorded and analyzed using SOFTmax PRO v4.7.1 software. […]

[3] = system: IL-1α; experiment: Semi-quantitative fluorescence cytokine array (Human Cytokine Array G3), IL-1α; format: cell-based; settings: 0.5% SLS positive control (6 hours); fluorescent signal intensity
Procedure: (§1) Cell culture supernatants collected after epidermal treatment are tested using the Human Cytokine Array G3 kit (RayBiotech).
(§2) On a glass slide containing the different specific antibodies, supernatants are deposited at a rate of 100 μL per well. A cocktail of biotin-coupled secondary antibodies is then added. With the addition of streptavidin, signal intensities are detected by fluorescence. Each step is followed by several washes.
(§3) The ratios (fluorescent signal intensity of the marker in the presence of the samples/fluorescent signal intensity of the marker in the untreated control) were calculated for each treatment from n=3 epidermal culture supernatants (except for the untreated control, n=2).
(§4) A ratio >1.5 reflects overexpression of the inflammatory marker.
(§5) A ratio <0.65 indicates underexpression of the inflammatory marker.
(§6) According to the supplier's criteria, signals are usable when they are greater than the average of the background noise+2SD.

[4] = system: IL-1β; experiment: Semi-quantitative fluorescence cytokine array (Human Cytokine Array G3), IL-1β; format: cell-based; settings: 0.5% SLS positive control (6 hours)
Procedure: as §1, §2, §3, §4, §5, §6

[5] = system: RANTES; experiment: Semi-quantitative fluorescence cytokine array (Human Cytokine Array G3), RANTES; format: cell-based; settings: 0.5% SLS positive control (6 hours)
Procedure: as §1, §2, §3, §4, §5, §6

[6] = system: VEGF; experiment: Semi-quantitative fluorescence cytokine array (Human Cytokine Array G3), VEGF; format: cell-based; settings: 0.5% SLS positive control (6 hours)
Procedure: as §1, §2, §3, §4, §5, §6

[7] = system: reconstructed human epidermis (normal human epidermal keratinocytes, NHEK); experiment: MTT cell proliferation (viability) test on 2D reconstructed human epidermis after SLS inflammation; format: cell-based; settings: % of untreated control
Procedure: Irritating chemical compounds are able to penetrate the stratum corneum and are cytotoxic to cells in the underlying layers. […] Cell viability is measured upon metabolism, by mitochondrial succinic dehydrogenase, of the vital dye MTT [3-(4,5-dimethylthiazol-2-yl)-2,5-bromide diphenyltetrazolium, thiazolyl blue; EINECS number 206-069-5, CAS number 298-93-1)], to a blue formazan salt which is measured quantitatively after its extraction from tissues.
The colored solution is measured spectrophotometrically at 570 nm using the Molecular Devices Vmax microplate reader, and absorbance values are recorded using the SOFTmax PRO v4.7.1 software. Statistical analysis is performed using GraphPad Prism v5.03 software.
Cytotoxicity of samples was tested using the epidermis model and is expressed as a percentage of untreated control (UTC) tissue.

[8] = system: 3D reconstructed human epidermis; experiment: Membrane integrity (LDH release, colorimetry) in 3D reconstructed human epidermis model; format: cell-based
From the text: The aim of the study was to assess the membrane integrity of skin cells in a three-dimensional (3D) reconstructed human epidermis model, by measuring the amount of the enzyme lactate dehydrogenase (LDH) in the culture supernatant, using colorimetry. LDH is an enzyme that is released in the event of cell death. The absence of LDH secretion is a sign that the integrity of epidermal cell membranes is preserved. Samples of 3D reconstructed human epidermis were immersed in an aqueous solution containing 0.5% by weight of sodium lauryl sulfate, for 6 hours. […] The amount of LDH secreted into the supernatant was then determined colorimetrically.

Structure (SMILES): CCCCCCCCCCCCOS(=O)(=O)[O-].[Na+] [SLS, Sodium Lauryl Sulfate]
- IL-8 Sample:Untreated ratio [1]: 3.2
- IL-8 assayed quantity [1]: (453 pg/mL)
- IL-1a Sample:Untreated ratio [2]: 2.3
- IL-1a assayed quantity [2]: (61 pg/mL)
- IL-1α Sample/Untreated ratio [3]: 2.3
- IL-1β Sample/Untreated ratio [4]: 0.8
- RANTES Sample/Untreated ratio [5]: 6.7
- VEGF Sample/Untreated ratio [6]: 1.9
- Viability % ([7]; 0.5% SLS positive control (6 hours)): 82.1%
- Viability % ([7]; 2% SLS positive control, mean of 3 replicates): 0.9%

Structure (SMILES): C[C@H]1C[C@H]2[C@@H]3CCC4=CC(=O)C=C[C@]4(C)[C@@]3(F)[C@@H](O)C[C@]2(C)[C@@]1(O)C(=O)CO [betamethasone]
- Membrane integrity (%) ([8]; 0.5% SLS (6 hours) + 0.5% betamethasone (20 hours)): 110.7%

Structure (SMILES): CC(C)=CCC[C@](C)(O)C1CC=C(C)CC1 (stereo partly drawn) [bisabolol]
- Membrane integrity (%) ([8]; 0.5% SLS (6 hours) + 0.5% bisabolol (20 hours)): 16.8%
